Data set [1] concerns Staphylococcus aureus. The data set can be described thus: Antimicrobial activity against methicillin-resistant Staphylococcus aureus ATCC 4330 infected in female ICR peritonitis mouse model assessed as survival time of mouse at 10 mg/kg, ip. The data set is classed as functional.
Data set [2] in a line: Toxicity in female ICR peritonitis mouse model infected with methicillin-resistant Staphylococcus aureus ATCC 4330 assessed as kidney damage at 10 mg/kg, ip. In kind it is organism-based. The conditions noted are these: in vivo.
Data set [3] has as its system Staphylococcus aureus. The data set is described as follows: Bactericidal activity against methicillin-resistant Staphylococcus aureus ATCC 4330 assessed as reduction in bacterial counts at 1 to 4X MIC within 24 hrs by time-kill kinetic assay. The data set is classed as functional.
Data set [4] concerns Staphylococcus aureus. The data set is described as follows: Antibiofilm activity against methicillin-resistant Staphylococcus aureus ATCC 4330 assessed as fold change in downregulation of AgrA mRNA expression at 4X MIC after 2 hrs by qRT-PCR assay. In kind it is functional. A general note: Real-time PCR tracks product formation cycle by cycle.
Data set [5] concerns Staphylococcus aureus. The data set is described as follows: Bactericidal activity against methicillin-resistant Staphylococcus aureus ATCC 4330 assessed as reduction in bacterial counts at 2X MIC within 0.5 hrs by time-kill kinetic assay. In kind it is functional.
The subject of data set [6] is Staphylococcus aureus. The data set can be described thus: Antimicrobial activity against methicillin-resistant Staphylococcus aureus ATCC 4330 infected in female ICR peritonitis mouse model assessed as increase in survival rate of mouse at 10 mg/kg, ip. In kind it is functional.
Data set [7] is described as follows: Hemolytic activity in mouse erythrocytes assessed as hemolysis at 12.5 ug/ml relative to control. In kind it is toxicity, cell-based, Erythrocyte. As to conditions: at 12.5 µg/mL, read-out: Activity.
Data set [8] can be described thus: Toxicity in female ICR peritonitis mouse model infected with methicillin-resistant Staphylococcus aureus ATCC 4330 assessed as liver damage at 10 mg/kg, ip. The data set is classed as organism-based. The conditions noted are these: in vivo.
The subject of data set [9] is Staphylococcus aureus. The data set can be described thus: Antibacterial activity against methicillin-resistant Staphylococcus aureus ATCC 4330 after 16 to 18 hrs by microbroth dilution method. The data set is classed as functional. The conditions noted are these: time 16-18 hrs. Background: Dilution methods test growth across graded concentrations, often in twofold steps.

Data set [10] is described as follows: Cytotoxicity against mouse RAW264.7 cells assessed as cell survival at 25 ug/ml incubated for 24 hrs by CCK-8 assay. In kind it is toxicity, cell-based. As to conditions: at 25 µg/mL, read-out: Activity. On the technique in general: Tetrazolium dyes change colour on reduction, which living cells bring about.
Data set [11] deals with Staphylococcus aureus. The data set is described as follows: Antibiofilm activity against methicillin-resistant Staphylococcus aureus ATCC 4330 assessed as inhibition of biofilm formation at 6.25 ug/ml after 24 hrs by crystal violet staining based assay relative to control. The data set is classed as functional.
A short description of data set [12]: Cytotoxicity against mouse RAW264.7 cells assessed as cell survival at 12.5 ug/ml incubated for 24 hrs by CCK-8 assay. The data set is classed as toxicity, cell-based. The conditions noted are these: at 12.5 µg/mL, read-out: Activity.
The nature of data set [13]: Toxicity in female ICR peritonitis mouse model infected with methicillin-resistant Staphylococcus aureus ATCC 4330 assessed as lung damage at 10 mg/kg, ip. The data set is classed as organism-based. The conditions noted are these: in vivo.
Data set [14] concerns Staphylococcus aureus. The data set is described as follows: Antimicrobial activity against methicillin-resistant Staphylococcus aureus ATCC 4330 infected in female ICR peritonitis mouse model assessed as reduction in bacteria in blood at 10 mg/kg, ip. In kind it is functional. On the set-up: scale not given: the % may be the effect or the level left.
Data set [15] can be described thus: Cytotoxicity against mouse RAW264.7 cells assessed as cell survival at 50 ug/ml incubated for 24 hrs by CCK-8 assay. In kind it is toxicity, cell-based. The conditions noted are these: at 50 µg/mL, read-out: Activity.
Data set [16] can be described thus: Cmax in rat plasma at 15 mg/kg, IG. The data set is classed as ADME, organism-based. On the set-up: dose 15 mg/kg, route ig. The conditions noted are these: po.
Data set [17] can be described thus: Cmax in rat plasma at 3 mg/kg, iv. In kind it is ADME, organism-based. On the set-up: dose 3 mg/kg, route iv.
Data set [18] is described as follows: Stability in plasma (unknown origin). The data set is classed as ADME, cell-free. As to conditions: unidentified.

Each structure is given as a SMILES string.

The results in this text go back to ChEMBL document CHEMBL5154694, “Fascaplysin derivatives binding to DNA via unique cationic five-ring coplanar backbone showed potent antimicrobial/antibiofilm activity against MRSA in vitro and in vivo” (Eur J Med Chem, 2022).

Usually MIC stands for the least concentration at which growth counts as inhibited. In general, inhibition refers to the percentage by which the read-out fell short of the control. For orientation: Cmax means the highest concentration seen after dosing.

On to `Cc1ccc2[nH]c3c4[n+](ccc3c2c1)-c1ccccc1C4=O.[Br-]`, for which, in the data set with Staphylococcus aureus [1], the Survival came out at 2 days. Besides, the Activity entry is on record as “Non-Toxic” in data set [2]; 2 log10CFU/ml in the data set with Staphylococcus aureus [3]; 1.7 log10CFU/ml in the data set with Staphylococcus aureus [5]; 20% in the data set with Staphylococcus aureus [6]; “Non-Toxic” in [8]; “Non-Toxic” in [13]. Also, the Activity in the data set on Staphylococcus aureus [14] is reported as 92%. Besides, the “fold change (FC)” value in the data set with Staphylococcus aureus [4] is 0.71. Besides, in data set [7], the hemolysis at 12.5 ug/ml is 0%. In the data set with Staphylococcus aureus [9], this molecule showed an MIC of 0.195 µg/mL. Moreover, in data set [10], the viability at 24 h, 25 ug/ml is 56.3%. The inhibition at 6.25 µg/mL with Staphylococcus aureus [11] was 65.4%. The viability at 24 h, 12.5 ug/ml in data set [12] stood at 17.7%. The viability at 24 h, 50 ug/ml in data set [15] amounted to 69.8%.
On to `O=C1c2ccccc2-[n+]2ccc3c([nH]c4ccccc43)c21.[Cl-]` [FASCAPLYSIN CHLORIDE], for which the Activity amounted to 2 log10CFU/ml in the data set on Staphylococcus aureus [3] and 0 log10CFU/ml with Staphylococcus aureus [5]. In addition, the Cmax in data set [16] worked out at 65.2 ng/mL; in [17], 414 ng/mL. This molecule also showed a Stability in data set [18] of 94.9%. Moreover, it took 0.78 µg/mL to inhibit growth in the data set with Staphylococcus aureus [9] (MIC).
